In patent US6087334A, “Anti-diabetic peptides” (Amylin Pharmaceuticals, Inc., priority 1998, dated 2000):
Where a SMILES comes first, the peptide text is derived from it. Bridges are numbered along the chain shown (N, C = ends).

System: gastric emptying in conscious rats
Conditions: rat, in vivo
Description: Peptide compounds of the present invention may be evaluated for amylin agonist activity using the methods of measuring the rate of gastric emptying disclosed in, for example, Young et al., Diabetologia, 38(6):642-648 (1995). In a phenol red method, which is described in Example D below, conscious rats receive by gavage an a caloric gel containing methyl cellulose and a phenol red indicator. Twenty minutes after gavage, animals are anesthetized using halothane, the stomach exposed and clamped at the pyloric and lower esophageal sphincters, removed and opened into an alkaline solution. Stomach content may be derived from the intensity of the phenol red in the alkaline solution, measured by absorbance at a wavelength of 560 nm. In a tritiated glucose method, conscious rats are gavaged with tritiated glucose in water. The rats are gently restrained by the tail, the tip of which is anesthetized using lidocaine. Tritium in the plasma separated from tail blood is collected at various timepoints and detected in a beta counter. Test compounds are normally administered about one minute before gavage.
Phenol Red Gastric Emptying Assay:
Gastric emptying was measured using a modification (Plourde et al., Life Sci. 53:857-862 (1993)) of the original method of Scarpignato et al. (Arch. Int. Pharmacodyn. Ther. 246:286-295 (1980)). Conscious rats received by gavage. 1.5 mL of an a caloric gel containing 1.5% methyl cellulose (M-0262, Sigma Chemical Co., St. Louis, Mo.) and 0.05% phenol red indicator. Twenty minutes after gavage, rats were anesthetized using 5% halothane, the stomach exposed and clamped at the pyloric and lower esophageal sphincters using artery forceps, removed and opened into an alkaline solution which was made up to a fixed volume. Stomach content was derived from the intensity of the phenol red in the alkaline solution, measured by absorbance at a wavelength of 560 nm. […] In other experiments, particulate gastric contents were centrifuged to clear the solution for absorbance measurements. Where the diluted gastric contents remained turbid, the spectroscopic absorbance due to phenol red was derived as the difference between that present in alkaline versus acidified dilutent.
In separate experiments on 7 rats, the stomach and small intestine were both excised and opened into an alkaline solution. […] Percent gastric emptying contents remaining=(absorbance at 20 min)/(absorbance at 0 min). For those compounds for which ED50 data is presented, dose response curves for gastric emptying were fitted to a 4-parameter logistic model using a least-squares iterative routine (ALLFIT, v2.7, NIH, Bethesda, Md.) to derive ED50 s. Because ED50 is log-normally distributed, it is expressed ± standard error of the logarithm. Pairwise comparisons were performed using one-way analysis of variance and the Student-Newman-Keuls multiple comparisons test (Instat v2.0, GraphPad Software, San Diego, Calif.) using P<0.05 as the level of significance.
As a reference point for dose response studies, rat amylin (Bachem, Torrance, Calif.) dissolved in 0.15M saline, was administered as a 0.1 mL subcutaneous bolus in doses of 0, 0.01, 0.1, 1, 10 or 100 μg 5 minutes before gavage in Harlan Sprague Dawley (non-diabetic) rats fasted 20 hours and diabetic BB rats fasted 6 hours.

SMILES | Example D ED50
CC(C)C[C@H](NC(=O)[C@H](CCCNC(=N)N)NC(=O)[C@H](C)NC(=O)[C@@H](NC(=O)[C@H](C)NC(=O)[C@@H]1CSSC[C@H](NC(=O)[C@@H](N)CCCCN)C(=O)N[C@@H](CC(N)=O)C(=O)N[C@@H]([C@@H](C)O)C(=O)N[C@@H](C)C(=O)N[C@@H]([C@@H](C)O)C(=O)N1)[C@@H](C)O)C(=O)N[C@@H](C)C(=O)N[C@@H](C)C(=O)N[C@@H](Cc1ccccc1)C(=O)N[C@@H](CC(C)C)C(=O)N[C@@H](C)C(=O)N[C@@H](CCCNC(=N)N)C(=O)N[C@@H](CO)C(=O)N[C@@H](CO)C(=O)NCC(=O)N[C@@H](Cc1ccc(O)cc1)C(N)=O [Example 1] (H-KCNTATCATARLAAFLARSSGY-NH2; disulfide 2-7) | 0.26 µg
CC(C)C[C@H](NC(=O)[C@H](CCCNC(=N)N)NC(=O)[C@H](C)NC(=O)[C@@H](NC(=O)[C@H](C)NC(=O)[C@@H]1CSSC[C@H](N)C(=O)N[C@@H](CC(N)=O)C(=O)N[C@@H]([C@@H](C)O)C(=O)N[C@@H](C)C(=O)N[C@@H]([C@@H](C)O)C(=O)N1)[C@@H](C)O)C(=O)N[C@@H](C)C(=O)N[C@@H](C)C(=O)N[C@@H](Cc1ccccc1)C(=O)N[C@@H](CC(C)C)C(=O)N[C@@H](C)C(=O)N[C@@H](CCCNC(=N)N)C(=O)N[C@@H](CO)C(N)=O [Example 3] (H-CNTATCATARLAAFLARS-NH2; disulfide 1-6) | 0.45 µg
CC(C)C[C@H](NC(=O)[C@H](CCCNC(=N)N)NC(=O)[C@H](C)NC(=O)[C@@H](NC(=O)[C@H](C)NC(=O)[C@@H]1CSSC[C@H](NC(=O)[C@@H](N)CCCCN)C(=O)N[C@@H](CC(N)=O)C(=O)N[C@@H]([C@@H](C)O)C(=O)N[C@@H](C)C(=O)N[C@@H]([C@@H](C)O)C(=O)N1)[C@@H](C)O)C(=O)N[C@@H](C)C(=O)N[C@@H](CC(N)=O)C(=O)N[C@@H](Cc1ccccc1)C(=O)N[C@@H](CC(C)C)C(=O)N[C@H](C(=O)N[C@@H](CCCNC(=N)N)C(=O)N[C@@H](CO)C(=O)N[C@@H](CO)C(=O)NCC(=O)N[C@@H](Cc1ccc(O)cc1)C(N)=O)C(C)C [Example 5] (H-KCNTATCATARLANFLVRSSGY-NH2; disulfide 2-7) | 9.3 µg
CC(C)C[C@H](NC(=O)[C@H](CCCNC(=N)N)NC(=O)[C@H](C)NC(=O)[C@@H](NC(=O)[C@H](C)NC(=O)[C@H](C)NC(=O)[C@@H](NC(=O)[C@H](CO)NC(=O)[C@@H](N)CC(C)C)[C@@H](C)O)[C@@H](C)O)C(=O)N[C@@H](C)C(=O)N[C@@H](C)C(=O)N[C@@H](Cc1ccccc1)C(=O)N[C@@H](CC(C)C)C(=O)N[C@@H](C)C(=O)N[C@@H](CCCNC(=N)N)C(=O)N[C@@H](CO)C(N)=O [Example 6] (H-LSTAATARLAAFLARS-NH2) | 1.34 µg
